According to patent publication US8362031B2, “Lonidamine analogues and treatment of polycystic kidney disease” (University of Kansas, priority 2004, dated 2013):

Key:
[1] = tested on: Salmonella Typhimurium TA 100; experiment: Ames test for mutagenicity (plate assay, colony count); conditions: 48 hours at 37° C.; for Ames test (+)S9 0.1 mg/pl. / Ames test (+)S9 1 mg/pl. / Ames test (+)S9 10 mg/pl.: (+)S9 mix; for Ames test (−)S9 0.1 mg/pl. / Ames test (−)S9 1 mg/pl. / Ames test (−)S9 10 mg/pl.: (−)S9 mix
Male Long Evans rats = experiment: In vivo antispermatogenic testing in Long Evans rats; conditions: for Mortality (25 mg/kg) / Response 25 mg/kg: 25 mg/kg single i.p. injection; for Response 25 mg/kg / Response 200 mg/kg: animals responding out of animals surviving, five days following injection; for Mortality (200 mg/kg) / Response 200 mg/kg: 200 mg/kg single i.p. injection

Row | SMILES | Ames test (+)S9 0.1 mg/pl. [1] | Ames test (+)S9 1 mg/pl. [1] | Ames test (+)S9 10 mg/pl. [1] | Ames test (−)S9 0.1 mg/pl. [1] | Ames test (−)S9 1 mg/pl. [1] | Ames test (−)S9 10 mg/pl. [1] | Mortality (25 mg/kg) (Male Long Evans rats) | Response 25 mg/kg (Male Long Evans rats) | Mortality (200 mg/kg) (Male Long Evans rats) | Response 200 mg/kg (Male Long Evans rats) | Staging 25 mg/kg (Male Long Evans rats; seminiferous tubule staging, 25 mg/kg i.p.) | Staging 200 mg/kg (Male Long Evans rats; seminiferous tubule staging, 200 mg/kg i.p.)
1 | COC(=O)c1nn(Cc2ccc(F)cc2F)c2cc(C(F)(F)F)ccc12 [JWS-1-270, 1-(2,4-difluorobenzyl)-6-trifluoromethyl-1H-indazole-3-carboxylic acid methyl ester] | Pass | Pass | Pass | Pass | Pass | Pass | 0/5 | 0/5 | 0/5 | 0/5 |  | 
2 | O=C(O)c1nn(Cc2ccc(Cl)cc2Cl)c2cc(Cl)ccc12 [DD-MC-I, 6-chloro-1-(2,4-dichlorobenzyl)-1H-indazole-3-carboxylic acid] | Pass | Pass | Pass | Pass | Pass | Pass | 0/5 | 0/5 | 0/5 | 2/5 |  | 
3 | O=C(O)/C=C/c1nn(Cc2ccc(Cl)cc2Cl)c2ccccc12 [AF2785, reference compound] |  |  |  |  |  |  | 0/5 | 1/5 | 2/6 | 3/4 | 5.5 | 3.4
4 | O=C(O)c1nn(Cc2ccc(F)cc2F)c2cc(C(F)(F)F)ccc12 [JWS-1-276, 1-(2,4-difluorobenzyl)-6-trifluoromethyl-1H-indazole-3-carboxylic acid] | Pass | Pass | Pass | Pass | Pass | Pass | 0/5 | 0/5 | 0/5 | 0/5 |  | 
5 | COC(=O)c1nn(Cc2ccc(Cl)cc2Cl)c2ccc(C(F)(F)F)cc12 [JWS-1-254, 1-(2,4-dichlorobenzyl)-5-trifluoromethyl-1H-indazole-3-carboxylic acid methyl ester] | Pass | Pass | Pass | Pass | Pass | Pass | 0/5 | 0/5 | 0/5 | 0/5 |  | 
6 | NNC(=O)c1nn(Cc2ccc(F)cc2F)c2cc(C(F)(F)F)ccc12 [JWS-1-274, 1-(2,4-difluorobenzyl)-6-trifluoromethyl-1H-indazole-3-carboxylic acid hydrazide] | Pass | Pass | Pass | Pass | Pass | Pass | 0/5 | 0/5 | 0/5 | 0/5 |  | 
7 | NNC(=O)c1nn(Cc2ccc(Cl)cc2Cl)c2ncccc12 [RC-MC-60, 1-(2,4-dichlorobenzyl)-1H-pyrazolo[3,4-b]pyridine-3-carboxylic acid hydrazide] | Pass | Pass | Pass | Pass | Pass | Pass | 0/5 | 0/5 | 0/5 | 0/5 |  | 
